Like-named read-outs stand apart in the source and are kept apart here.
What was measured:
[1] = molecular target: T1, BAZ2B (Homo sapiens, UniProt Q9UIF8); test: ALPHA selectivity panel, BAZ2B; format: binding; conditions: 25 μM compound, ALPHA assay
T1 construct: the bromodomains from ATAD2, BAZ1A, BAZ2A, BAZ2B, BRD9, BRPF3, CECR2, GCN5L2, PHIP(1), PB1(1), and TIF1α; made in house
T1 sequence (Q9UIF8 2060-2164 limits assumed): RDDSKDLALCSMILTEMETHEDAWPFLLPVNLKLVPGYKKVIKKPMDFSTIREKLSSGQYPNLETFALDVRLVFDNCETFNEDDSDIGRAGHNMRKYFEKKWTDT
Description: (§1) The ALPHA assay was also used to determine the selectivity of 8, 9, and 17, 21–23 for BRD4(1) over the bromodomain of CREBBP (Table 2). […] The selectivity of 8 was further evaluated across a phylogenetically diverse range of bromodomains (Figure 5).
(§2) Bromodomain AlphaScreen assays were carried out as previously described.[24],[30] All experiments were carried out in duplicate on the same plate.

[2] = molecular target: T2, BRPF3 (Homo sapiens, UniProt Q9ULD4); test: ALPHA selectivity panel, BRPF3; format: binding; conditions: 25 μM compound, ALPHA assay
T2 construct: the bromodomains from ATAD2, BAZ1A, BAZ2A, BAZ2B, BRD9, BRPF3, CECR2, GCN5L2, PHIP(1), PB1(1), and TIF1α; made in house
T2 sequence (Q9ULD4 589-693 limits assumed): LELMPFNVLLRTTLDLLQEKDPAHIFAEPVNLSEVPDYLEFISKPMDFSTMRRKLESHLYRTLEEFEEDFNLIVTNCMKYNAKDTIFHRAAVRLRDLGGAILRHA
Description: as §1, §2

[3] = molecular target: T3, BRD9 (Homo sapiens, UniProt Q9H8M2); test: ALPHA selectivity panel, BRD9; format: binding; conditions: 25 μM compound, ALPHA assay
T3 construct: the bromodomains from ATAD2, BAZ1A, BAZ2A, BAZ2B, BRD9, BRPF3, CECR2, GCN5L2, PHIP(1), PB1(1), and TIF1α; made in house
T3 sequence (Q9H8M2 136-240 limits assumed): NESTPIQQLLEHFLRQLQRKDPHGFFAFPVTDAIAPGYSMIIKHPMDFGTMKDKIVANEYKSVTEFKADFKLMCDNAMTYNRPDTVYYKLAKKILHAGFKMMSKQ
Description: as §1, §2

[4] = molecular target: T4, ATAD2 (Homo sapiens, UniProt Q6PL18); test: ALPHA selectivity panel, ATAD2; format: binding; conditions: 25 μM compound, ALPHA assay
T4 construct: the bromodomains from ATAD2, BAZ1A, BAZ2A, BAZ2B, BRD9, BRPF3, CECR2, GCN5L2, PHIP(1), PB1(1), and TIF1α; made in house
T4 sequence (Q6PL18 980-1092 limits assumed): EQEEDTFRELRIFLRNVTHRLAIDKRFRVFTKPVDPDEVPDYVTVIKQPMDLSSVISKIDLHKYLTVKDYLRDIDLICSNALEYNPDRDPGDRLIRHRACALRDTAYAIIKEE
Description: as §1, §2

[5] = molecular target: T5, BAZ2A (Homo sapiens, UniProt Q9UIF9); test: ALPHA selectivity panel, BAZ2A; format: binding; conditions: 25 μM compound, ALPHA assay
T5 construct: the bromodomains from ATAD2, BAZ1A, BAZ2A, BAZ2B, BRD9, BRPF3, CECR2, GCN5L2, PHIP(1), PB1(1), and TIF1α; made in house
T5 sequence (Q9UIF9 1793-1897 limits assumed): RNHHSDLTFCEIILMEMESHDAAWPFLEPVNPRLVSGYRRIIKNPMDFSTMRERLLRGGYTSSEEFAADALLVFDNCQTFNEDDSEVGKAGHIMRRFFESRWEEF
Description: as §1, §2

[6] = molecular target: T6, BRD4(1) (Homo sapiens, UniProt O60885); test: AlphaScreen peptide displacement assay (ALPHA), BRD4(1); format: binding; conditions: 25 μM compound, ALPHA assay; read-out: inhibition of the BRD4(1) bromodomain
T6 construct: amplify the N-terminal bromodomain region of the protein; made in house

[7] = molecular target: T7, PHIP(1) (Homo sapiens, UniProt Q8WWQ0); test: ALPHA selectivity panel, PHIP(1); format: binding; conditions: 25 μM compound, ALPHA assay
T7 construct: the bromodomains from ATAD2, BAZ1A, BAZ2A, BAZ2B, BRD9, BRPF3, CECR2, GCN5L2, PHIP(1), PB1(1), and TIF1α; made in house
Description: as §1, §2

[8] = molecular target: T8, TIF1α (Homo sapiens, UniProt O15164); test: ALPHA selectivity panel, TIF1α; format: binding; conditions: 25 μM compound, ALPHA assay
T8 construct: the bromodomains from ATAD2, BAZ1A, BAZ2A, BAZ2B, BRD9, BRPF3, CECR2, GCN5L2, PHIP(1), PB1(1), and TIF1α; made in house
T8 sequence (O15164 899-1004 limits assumed): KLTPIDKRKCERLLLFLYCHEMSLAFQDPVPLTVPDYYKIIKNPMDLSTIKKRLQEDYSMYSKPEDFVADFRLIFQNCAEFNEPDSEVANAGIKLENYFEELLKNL
Description: as §1, §2

[9] = test system: A549 (lung adenocarcinoma) cells; test: MTS cytotoxicity assay, A549 cells; format: cell-based; conditions: 100 μM, 72 h
Description: (§3) We also investigated the effects of 8 and 9 in two lung adenocarcinoma cell lines, A549 and H1975. […] H1975 appeared to be somewhat more sensitive to these compounds, a finding confirmed by a clonogenic survival assay (Supporting Information Figure S5).
(§4) Viability of MV4;11, H549, and H1975 cells was monitored by MTS-based CellTiter 96 AQueous nonradioactive cell proliferation assay (Promega, Madison, WI). Viability of U2OS and HeLa cells was monitored by WST-based cell proliferation kit (Roche, Mannheim, Germany). Further details are provided in Supporting Information

[10] = molecular target: T9, CECR2 (Homo sapiens, UniProt Q9BXF3); test: ALPHA selectivity panel, CECR2; format: binding; conditions: 25 μM compound, ALPHA assay
T9 construct: the bromodomains from ATAD2, BAZ1A, BAZ2A, BAZ2B, BRD9, BRPF3, CECR2, GCN5L2, PHIP(1), PB1(1), and TIF1α; made in house
T9 sequence (Q9BXF3 434-538 limits assumed): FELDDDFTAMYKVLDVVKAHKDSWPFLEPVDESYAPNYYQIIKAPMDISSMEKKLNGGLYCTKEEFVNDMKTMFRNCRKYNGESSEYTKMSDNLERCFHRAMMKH
Description: as §1, §2

[11] = molecular target: T10, CREBBP bromodomain (Homo sapiens, UniProt Q92793); test: AlphaScreen peptide displacement assay (ALPHA), CREBBP; format: binding; conditions: 25 μM compound
T10 construct: made in house
T10 sequence (Q92793 1085-1192 limits assumed): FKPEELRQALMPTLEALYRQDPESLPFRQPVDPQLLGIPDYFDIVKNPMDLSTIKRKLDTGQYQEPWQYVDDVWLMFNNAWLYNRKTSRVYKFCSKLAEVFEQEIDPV

[12] = molecular target: T11, PB1(1) (Homo sapiens, UniProt Q86U86); test: ALPHA selectivity panel, PB1(1); format: binding; conditions: 25 μM compound, ALPHA assay
T11 construct: the bromodomains from ATAD2, BAZ1A, BAZ2A, BAZ2B, BRD9, BRPF3, CECR2, GCN5L2, PHIP(1), PB1(1), and TIF1α; made in house
T11 sequence (Q86U86 41-151 limits assumed): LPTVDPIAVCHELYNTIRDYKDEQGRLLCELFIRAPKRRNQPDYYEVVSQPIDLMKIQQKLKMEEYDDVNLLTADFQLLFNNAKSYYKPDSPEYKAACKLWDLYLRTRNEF
Description: as §1, §2

[13] = test system: HeLa (cervical adenocarcinoma) cells; test: WST-1 viability assay, HeLa cells; format: cell-based; conditions: Homo sapiens, read-out: IC50, HeLa (cervical adenocarcinoma)
[14] = molecular target: T12, GCN5L2 (Homo sapiens, UniProt Q92830); test: ALPHA selectivity panel, GCN5L2; format: binding; conditions: 25 μM compound, ALPHA assay
T12 construct: the bromodomains from ATAD2, BAZ1A, BAZ2A, BAZ2B, BRD9, BRPF3, CECR2, GCN5L2, PHIP(1), PB1(1), and TIF1α; made in house
T12 sequence (Q92830 728-832 limits assumed): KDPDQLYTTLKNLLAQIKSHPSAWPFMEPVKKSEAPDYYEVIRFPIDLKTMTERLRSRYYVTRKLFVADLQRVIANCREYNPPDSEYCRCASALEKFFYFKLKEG
Description: as §1, §2

[15] = molecular target: T13, BAZ1A (Homo sapiens, UniProt Q9NRL2); test: ALPHA selectivity panel, BAZ1A; format: binding; conditions: 25 μM compound, ALPHA assay
T13 construct: the bromodomains from ATAD2, BAZ1A, BAZ2A, BAZ2B, BRD9, BRPF3, CECR2, GCN5L2, PHIP(1), PB1(1), and TIF1α; made in house
T13 sequence (Q9NRL2 1430-1533 limits assumed): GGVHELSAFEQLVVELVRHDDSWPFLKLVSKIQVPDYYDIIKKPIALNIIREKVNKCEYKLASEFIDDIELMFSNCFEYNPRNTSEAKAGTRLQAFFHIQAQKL
Description: as §1, §2

[16] = test system: H1975 (lung adenocarcinoma) cells; test: MTS cytotoxicity assay, H1975 cells; format: cell-based; conditions: 100 μM, 72 h
Description: as §3, §4

[17] = test system: U2OS (osteosarcoma) cells; test: WST-1 viability assay, U2OS cells; format: cell-based; conditions: Homo sapiens, read-out: IC50, U2OS (osteosarcoma)
[18] = test system: MV4;11 (AML) cells; test: MTS cytotoxicity assay, MV4;11 cells; format: cell-based; conditions: Homo sapiens, viability after 72 h
[19] = molecular target: bromodomain of cAMP response element binding protein (CREB) binding protein (UniProt Q92793 1081-1197); test: AlphaScreen or HTRF; peptide displacement ALPHA assay; CREBBP bromodomain and biotinylated H3K56Ac peptide, protein and peptide concentration 200 nM (Table 1) or 50 nM (Table 2); small-molecule competitors; duplicate on the same plate; conditions: both partners purified
Chain of bromodomain of cAMP response element binding protein (CREB) binding protein (Q92793 1081-1197): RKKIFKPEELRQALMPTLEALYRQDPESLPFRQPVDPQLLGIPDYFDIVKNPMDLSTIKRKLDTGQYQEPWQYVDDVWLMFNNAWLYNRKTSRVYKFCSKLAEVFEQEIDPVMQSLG

[20] = viability after 72 h incubation using MTS

## Cc1noc(C)c1-c1cc(O)cc(C(O)c2ccccc2)c1 (centres unmarked) [Compound 8, 3-(3,5-Dimethylisoxazol-4-yl)-5-(hydroxy(phenyl)methyl)phenol]
[1]
  percentage inhibition of BAZ2B bromodomain: little affinity
[1]; read-out: percentage inhibition of BAZ2B bromodomain
  inhibition at 25 µM: < 25%
[2]
  percentage inhibition of BRPF3 bromodomain: little affinity
[2]; read-out: percentage inhibition of BRPF3 bromodomain
  inhibition at 25 µM: < 25%
[3]
  percentage inhibition of BRD9 bromodomain: little affinity
[3]; read-out: percentage inhibition of BRD9 bromodomain
  inhibition at 25 µM: < 25%
[4]
  percentage inhibition of ATAD2 bromodomain: little affinity
[4]; read-out: percentage inhibition of ATAD2 bromodomain
  inhibition at 25 µM: < 25%
[5]
  percentage inhibition of BAZ2A bromodomain: little affinity
[5]; read-out: percentage inhibition of BAZ2A bromodomain
  inhibition at 25 µM: < 25%
[6]
  inhibition at 25 µM: ~100%
[7]
  percentage inhibition of PHIP(1) bromodomain: little affinity
[7]; read-out: percentage inhibition of PHIP(1) bromodomain
  inhibition at 25 µM: < 25%
[8]
  percentage inhibition of TIF1α bromodomain: little affinity
[8]; read-out: percentage inhibition of TIF1α bromodomain
  inhibition at 25 µM: < 25%
[9]
  effect on viability of A549 cells: markedly reduced the viability
[10]
  percentage inhibition of CECR2 bromodomain: little affinity
[10]; read-out: percentage inhibition of CECR2 bromodomain
  inhibition at 25 µM: < 25%
[11]
  inhibition at 25 µM: ~100%
[12]
  percentage inhibition of PB1(1) bromodomain: little affinity
[12]; read-out: percentage inhibition of PB1(1) bromodomain
  inhibition at 25 µM: < 25%
[13]; [20]
  IC50: 24 µM
[14]
  percentage inhibition of GCN5L2 bromodomain: little affinity
[14]; read-out: percentage inhibition of GCN5L2 bromodomain
  inhibition at 25 µM: < 25%
[15]
  percentage inhibition of BAZ1A bromodomain: little affinity
[15]; read-out: percentage inhibition of BAZ1A bromodomain
  inhibition at 25 µM: < 25%
[16]
  effect on viability of H1975 cells: markedly reduced the viability
[17]; [20]
  IC50: 19 µM

## Cc1sc2c(c1C)C(c1ccc(Cl)cc1)=N[C@@H](CC(=O)OC(C)(C)C)c1nnc(C)n1-2 [(+)-JQ1, reference compound]
[13]; 72 h
  IC50: 2.1 µM
[17]; 72 h
  IC50: 2.9 µM

## CN1CCC(CNc2ccc3ncc(-c4cccc(OC(F)(F)F)c4)n3n2)CC1 [SGI-1176, SGI-1776]
[18]
  IC50: 0.053 µM

B1: H3K56Ac peptide (peptide)
peptide: ALREIRRYQKSTELLIRKLK
modifications: K(Ac) (acetyl-lysine) at the 10th residue (K56 of histone H3 by the peptide's name); K(biotin) at the C-terminal lysine
[19]
  binding result: binds

Source: PMC3640414 (Journal of Medicinal Chemistry, 2013)
